# Measured values: PubChem BioAssay (NCI)
#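 Each compound was tested at five concentrations against cells in 96-well plates for 48 hours. At the GI50, growth is halved. TGI: concentration producing complete growth inhibition.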
# Key:
# Experiment in all cases: inhibition of tumour cell growth, NCI panel, 48 h
# 786-0 renal = system: 786-0 renal
# A498 renal = system: A498 renal
# A549 NSCLC = system: A549 NSCLC
# ACHN renal = system: ACHN renal
# BT-549 breast = system: BT-549 breast
# CAKI-1 renal = system: CAKI-1 renal
# CCRF-CEM leukemia = system: CCRF-CEM leukemia
# COLO 205 colon = system: COLO 205 colon
# DU-145 prostate = system: DU-145 prostate
# EKVX NSCLC = system: EKVX NSCLC
# HCC-2998 colon = system: HCC-2998 colon
# HCT-116 colon = system: HCT-116 colon
# HCT-15 colon = system: HCT-15 colon
# HL-60(TB) leukemia = system: HL-60(TB) leukemia
# HOP-62 NSCLC = system: HOP-62 NSCLC
# HOP-92 NSCLC = system: HOP-92 NSCLC
# HS 578T breast = system: HS 578T breast
# HT29 colon = system: HT29 colon
# IGROV1 ovarian = system: IGROV1 ovarian
# K-562 leukemia = system: K-562 leukemia
# KM12 colon = system: KM12 colon
# LOX IMVI melanoma = system: LOX IMVI melanoma
# M14 melanoma = system: M14 melanoma
# MALME-3M melanoma = system: MALME-3M melanoma
# MCF7 breast = system: MCF7 breast
# MDA-MB-231 breast = system: MDA-MB-231 breast
# MDA-MB-435 = system: MDA-MB-435
# MOLT-4 leukemia = system: MOLT-4 leukemia
# NCI-H226 lung = system: NCI-H226 lung
# NCI-H23 lung = system: NCI-H23 lung
# NCI-H460 lung = system: NCI-H460 lung
# NCI-H522 lung = system: NCI-H522 lung
# NCI/ADR-RES ovarian = system: NCI/ADR-RES ovarian
# OVCAR-3 ovarian = system: OVCAR-3 ovarian
# OVCAR-4 ovarian = system: OVCAR-4 ovarian
# OVCAR-5 ovarian = system: OVCAR-5 ovarian
# OVCAR-8 ovarian = system: OVCAR-8 ovarian
# PC-3 prostate = system: PC-3 prostate
# RPMI-8226 leukemia = system: RPMI-8226 leukemia
# RXF 393 renal = system: RXF 393 renal
# SF-268 CNS = system: SF-268 CNS
# SF-295 CNS = system: SF-295 CNS
# SF-539 CNS = system: SF-539 CNS
# SK-MEL-2 melanoma = system: SK-MEL-2 melanoma
# SK-MEL-28 melanoma = system: SK-MEL-28 melanoma
# SK-MEL-5 melanoma = system: SK-MEL-5 melanoma
# SK-OV-3 ovarian = system: SK-OV-3 ovarian
# SN12C renal = system: SN12C renal
# SNB-19 CNS = system: SNB-19 CNS
# SNB-75 CNS = system: SNB-75 CNS
# SR leukemia = system: SR leukemia
# SW-620 colon = system: SW-620 colon
# T-47D breast = system: T-47D breast
# TK-10 renal = system: TK-10 renal
# U251 CNS = system: U251 CNS
# UACC-257 melanoma = system: UACC-257 melanoma
# UACC-62 melanoma = system: UACC-62 melanoma
# UO-31 renal = system: UO-31 renal
smiles,measurement,setting,value
Cc1oc2c(C(=O)N/N=C\c3ccc(O)cc3O)c[nH]c2c1C,GI50,786-0 renal,0.464 µM
same,TGI,786-0 renal,7.49 µM
same,GI50,A498 renal,6.62 µM
same,TGI,A498 renal,39.3 µM
same,GI50,A549 NSCLC,0.518 µM
same,TGI,A549 NSCLC,13.2 µM
same,GI50,ACHN renal,0.339 µM
same,TGI,ACHN renal,13.7 µM
same,GI50,BT-549 breast,2.05 µM
same,TGI,BT-549 breast,> 54.6 µM
same,GI50,CAKI-1 renal,0.739 µM
same,TGI,CAKI-1 renal,26.7 µM
same,GI50,CCRF-CEM leukemia,0.19 µM
same,TGI,CCRF-CEM leukemia,> 100 µM
same,GI50,COLO 205 colon,0.29 µM
same,GI50,DU-145 prostate,1.32 µM
same,TGI,DU-145 prostate,> 41.1 µM
same,GI50,EKVX NSCLC,0.46 µM
same,TGI,EKVX NSCLC,> 54.2 µM
same,GI50,HCC-2998 colon,0.876 µM
same,TGI,HCC-2998 colon,> 50.6 µM
same,GI50,HCT-116 colon,0.424 µM
same,TGI,HCT-116 colon,32.5 µM
same,GI50,HCT-15 colon,0.175 µM
same,TGI,HCT-15 colon,> 100 µM
same,GI50,HL-60(TB) leukemia,0.337 µM
same,GI50,HOP-62 NSCLC,0.754 µM
same,TGI,HOP-62 NSCLC,26.3 µM
same,GI50,HOP-92 NSCLC,0.541 µM
same,TGI,HOP-92 NSCLC,9.21 µM
same,GI50,HS 578T breast,6.71 µM
same,TGI,HS 578T breast,> 60.7 µM
same,GI50,HT29 colon,2.85 µM
same,TGI,HT29 colon,> 48.2 µM
same,GI50,IGROV1 ovarian,0.593 µM
same,TGI,IGROV1 ovarian,44.5 µM
same,GI50,K-562 leukemia,1.14 µM
same,TGI,K-562 leukemia,> 100 µM
same,GI50,KM12 colon,1.1 µM
same,TGI,KM12 colon,> 73.4 µM
same,GI50,LOX IMVI melanoma,0.409 µM
same,TGI,LOX IMVI melanoma,10.6 µM
same,GI50,M14 melanoma,0.756 µM
same,TGI,M14 melanoma,17.3 µM
same,GI50,MALME-3M melanoma,2.23 µM
same,TGI,MALME-3M melanoma,25.3 µM
same,GI50,MCF7 breast,0.521 µM
same,TGI,MCF7 breast,> 33.6 µM
same,GI50,MDA-MB-231 breast,8.13 µM
same,TGI,MDA-MB-231 breast,> 45.9 µM
same,GI50,MDA-MB-435,4.52 µM
same,TGI,MDA-MB-435,> 100 µM
same,GI50,MOLT-4 leukemia,0.44 µM
same,TGI,MOLT-4 leukemia,> 100 µM
same,GI50,NCI-H226 lung,4.14 µM
same,TGI,NCI-H226 lung,24.3 µM
same,GI50,NCI-H23 lung,1.49 µM
same,TGI,NCI-H23 lung,24.3 µM
same,GI50,NCI-H460 lung,0.347 µM
same,TGI,NCI-H460 lung,7.28 µM
same,GI50,NCI-H522 lung,0.704 µM
same,TGI,NCI-H522 lung,63.9 µM
same,GI50,NCI/ADR-RES ovarian,0.295 µM
same,TGI,NCI/ADR-RES ovarian,23.3 µM
same,GI50,OVCAR-3 ovarian,0.368 µM
same,TGI,OVCAR-3 ovarian,> 39.4 µM
same,GI50,OVCAR-4 ovarian,0.414 µM
same,TGI,OVCAR-4 ovarian,> 47.1 µM
same,GI50,OVCAR-5 ovarian,3.89 µM
same,TGI,OVCAR-5 ovarian,> 45.2 µM
same,GI50,OVCAR-8 ovarian,0.664 µM
same,TGI,OVCAR-8 ovarian,39.7 µM
same,GI50,PC-3 prostate,0.579 µM
same,TGI,PC-3 prostate,> 45.6 µM
same,GI50,RPMI-8226 leukemia,0.445 µM
same,TGI,RPMI-8226 leukemia,17.4 µM
same,GI50,RXF 393 renal,0.58 µM
same,TGI,RXF 393 renal,16.7 µM
same,GI50,SF-268 CNS,0.662 µM
same,TGI,SF-268 CNS,> 44.4 µM
same,GI50,SF-295 CNS,0.435 µM
same,TGI,SF-295 CNS,29.6 µM
same,GI50,SF-539 CNS,0.84 µM
same,TGI,SF-539 CNS,12.5 µM
same,GI50,SK-MEL-2 melanoma,10.4 µM
same,TGI,SK-MEL-2 melanoma,> 100 µM
same,GI50,SK-MEL-28 melanoma,2.12 µM
same,TGI,SK-MEL-28 melanoma,> 41.7 µM
same,GI50,SK-MEL-5 melanoma,1.02 µM
same,TGI,SK-MEL-5 melanoma,15.7 µM
same,GI50,SK-OV-3 ovarian,0.68 µM
same,TGI,SK-OV-3 ovarian,17.4 µM
same,GI50,SN12C renal,2.54 µM
same,TGI,SN12C renal,> 48.4 µM
same,GI50,SNB-19 CNS,1.32 µM
same,TGI,SNB-19 CNS,> 42 µM
same,GI50,SNB-75 CNS,3.57 µM
same,TGI,SNB-75 CNS,> 39.6 µM
same,GI50,SR leukemia,4.47 µM
same,TGI,SR leukemia,> 100 µM
same,GI50,SW-620 colon,0.801 µM
same,TGI,SW-620 colon,> 37 µM
same,GI50,T-47D breast,1.79 µM
same,TGI,T-47D breast,> 43.2 µM
same,GI50,TK-10 renal,1.03 µM
same,TGI,TK-10 renal,> 64.8 µM
same,GI50,U251 CNS,0.57 µM
same,TGI,U251 CNS,15.4 µM
same,GI50,UACC-257 melanoma,0.644 µM
same,TGI,UACC-257 melanoma,3.08 µM
same,GI50,UACC-62 melanoma,0.665 µM
same,TGI,UACC-62 melanoma,8.32 µM
same,GI50,UO-31 renal,0.208 µM
same,TGI,UO-31 renal,13.9 µM
